Data as given in patent publication US6492383B1, “Thienopyrimidine and thienopyridine derivatives useful as anticancer agents” (Pfizer Inc., priority 1998, dated 2002).
Counter-ions that a name gives are not always drawn.

Row | SMILES | melting point
1 | COC(=O)CCNCc1ccc(-c2cc3ncnc(Nc4ccc5[nH]ccc5c4)c3s2)cc1 (as salt: HCl) [Example 17, 3-{4-[4-(1H-Indol-5-ylamino)-thieno[3,2-d]pyrimidin-6-yl]-benzylamino}-propionic Acid Methyl Ester] | 105 to 118 °C
2 | CNCc1ccc(-c2cc3ncnc(Nc4ccc5[nH]ccc5c4)c3s2)cc1 (as salt: mesylate) [Example 25, (1H-Indol-5-yl)-[6-(4-methylaminomethyl-phenyl)-thieno[3,2-d]pyrimidin-4-yl]-amine] | 140 to 147 °C
3 | CN1CCN(Cc2ccc(-c3cc4ncnc(Nc5ccc6[nH]ccc6c5)c4s3)cc2)CC1 (as salt: mesylate) [Example 26, (1H-Indol-5-yl)-{6-[4-(4-methyl-piperazin-1-ylmethyl)-phenyl]-thieno[3,2-d]pyrimidin-4-yl}-amine] | 143 to 150 °C
4 | OCCN(CCO)Cc1ccc(-c2cc3ncnc(Nc4ccc5[nH]ccc5c4)c3s2)cc1 (as salt: mesylate) [Example 29, 2-((2-Hydroxy-ethyl)-{4-[4-(1H-indol-5-ylamino)-thieno[3,2-d]pyrimidin-6-yl]-benzyl}-amino)-ethanol] | 110 to 127 °C
5 | c1ccc(-c2cc3ncnc(Nc4ccc5[nH]ccc5c4)c3s2)cc1 [Example 2, (1H-indol-5-yl)-(6-phenyl-thieno[3,2-d]pyrimidin-4-yl)-amine] | 255 to 258 °C (dec.)
6 | Clc1ccc(-c2cc3ncnc(Nc4ccc5[nH]ccc5c4)c3s2)cc1 [Example 3, [6-(4-Chloro-phenyl)-thieno[3,2-d]pyrimidin-4-yl]-(1H-indol-5-yl)-amine] | 190 to 210 °C
7 | Fc1ccc(-c2cc3ncnc(Nc4ccc5[nH]ccc5c4)c3s2)cc1 [Example 4, [6-(4-Fluoro-phenyl)-thieno[3,2-d]pyrimidin-4-yl]-(1H-indol-5-yl)-amine] | 193 to 205 °C
8 | COc1ccc(-c2cc3ncnc(Nc4ccc5[nH]ccc5c4)c3s2)cc1 [Example 5, (1H-Indol-5-yl)-[6-(4-methoxy-phenyl)-thieno[3,2-d]pyrimidin-4-yl]-amine] | 150 to 180 °C
9 | Cc1ccc(-c2cc3ncnc(Nc4ccc5[nH]ccc5c4)c3s2)cc1 [Example 6, (1H-Indol-5-yl)-(6-p-tolyl-thieno[3,2-d]pyrimidin-4-yl)-amine] | 200 to 220 °C
10 | c1nc(Nc2ccc3[nH]ccc3c2)c2sc(-c3ccsc3)cc2n1 [Example 8, (1H-indol-5-yl)-(6-thiophen-3-yl-thieno[3,2-d]pyrimidin-4-yl)-amine] | 178 to 189 °C
11 | CSc1ccc(-c2cc3ncnc(Nc4ccc5[nH]ccc5c4)c3s2)cc1 [Example 9, (1H-Indol-5-yl)-[6-(4-methylsulfanyl-phenyl)-thieno[3,2-d]pyrimidin-4-yl]-amine] | 163 to 178 °C
12 | O=[N+]([O-])c1cccc(-c2cc3ncnc(Nc4ccc5[nH]ccc5c4)c3s2)c1 [Example 10, (1H-Indol-5-yl)-[6-(3-nitro-phenyl)-thieno[3,2-d]pyrimidin-4-yl]-amine] | 175 to 183 °C
13 | Fc1ccc(-c2cc3ncnc(Nc4ccc5[nH]ccc5c4)c3s2)cc1Cl [Example 12, [6-(3-Chloro-4-fluoro-phenyl)-thieno[3,2-d]pyrimidin-4-yl]-(1H-indol-5-yl)-amine] | 175 to 183 °C
14 | CCc1ccc(-c2cc3ncnc(Nc4ccc5[nH]ccc5c4)c3s2)cc1 [Example 13, [6-(4-Ethyl-phenyl)-thieno[3,2-d]pyrimidin-4-yl]-(1H-indol-5-yl)-amine] | 171 to 182 °C
15 | COc1ccc(-c2cc3ncnc(Nc4ccc5[nH]ccc5c4)c3s2)cc1OC [Example 16, [6-(3,4-Dimethoxy-phenyl)-thieno[3,2-d]pyrimidin-4-yl]-(1H-indol-5-yl)-amine] | 171 to 178 °C
16 | CN(C)CCNCc1ccc(-c2cc3ncnc(Nc4ccc5[nH]ccc5c4)c3s2)cc1 [Example 18, N-{4-[4-(1H-Indol-5-ylamino)-thieno[3,2-d]pyrimidin-6-yl]-benzyl}-N′,N′-dimethyl-ethane-1,2-diamine] | 170 to 183 °C
17 | CCCNCc1ccc(-c2cc3ncnc(Nc4ccc5[nH]ccc5c4)c3s2)cc1 [Example 21, (1H-Indol-5-yl)-[6-(4-propylaminomethyl-phenyl)-thieno[3,2-d]pyrimidin-4-yl]-amine] | 190 to 205 °C
18 | COCCCNCc1ccc(-c2cc3ncnc(Nc4ccc5[nH]ccc5c4)c3s2)cc1 [Example 22, (1H-Indol-5-yl)-(6-{4-[(3-methoxy-propylamino)-methyl]-phenyl}-thieno[3,2-d]pyrimidin-4-yl)-amine] | 160 to 175 °C
19 | c1nc(Nc2ccc3[nH]ccc3c2)c2sc(-c3ccc(CNCCN4CCNCC4)cc3)cc2n1 [Example 23, (1H-Indol-5-yl)-(6-{4-[(2-piperazin-1-yl-ethylamino)-methyl]-phenyl}-thieno[3,2-d]pyrimidin-4-yl)-amine] | 178 to 191 °C
20 | c1nc(Nc2ccc3[nH]ccc3c2)c2sc(-c3ccc(CNCCN4CCOCC4)cc3)cc2n1 [Example 24, (1H-Indol-5-yl)-(6-{4-[(2-morpholin-4-yl-ethylamino)-methyl]-phenyl}-thieno[3,2-d]pyrimidin-4-yl)-amine] | 100 to 111 °C

Now from value to compound:

Row | melting point | SMILES
21 | 238 to 241 °C | Cc1cccc(Nc2ncnc3cc(-c4ccccc4)sc23)c1 (as salt: HCl) [Example 92, (6-Phenyl-thieno[3,2-d]pyrimidin-4-yl)-m-tolyl-amine]
22 | 111 to 119 °C | OCCOCCNCc1ccc(-c2cc3ncnc(Nc4ccc5[nH]ccc5c4)c3s2)cc1 (as salt: mesylate) [Example 30, 2-(2-(4-[4-(1H-Indol-5-ylamino)-thieno[3,2-d]pyrimidin-6-yl]-benzylamino}-ethoxy)-ethanol]
23 | 78 to 95 °C | OCCNCCNCc1ccc(-c2cc3ncnc(Nc4ccc5[nH]ccc5c4)c3s2)cc1 (as salt: mesylate) [Example 31, 2-(2-{4-[4-(1H-indol-5-ylamino)-thieno[3,2-d]pyrimidin-6-yl]-benzylamino}-ethylamino)-ethanol]
24 | 111 to 121 °C | c1csc(CNCc2ccc(-c3cc4ncnc(Nc5ccc6[nH]ccc6c5)c4s3)cc2)c1 (as salt: mesylate) [Example 33, (1H-Indol-5-yl)-[6-(4-{[(thiophen-2-ylmethyl)-amino]-methyl}-phenyl)-thieno[3,2-d]pyrimidin-4-yl]-amine]
25 | 125 to 134 °C | c1coc(CNCc2ccc(-c3cc4ncnc(Nc5ccc6[nH]ccc6c5)c4s3)cc2)c1 [Example 34, [6-(4-{[(Furan-2-ylmethyl)-amino]-methyl}-phenyl)-thieno[3,2-d]pyrimidin-4-yl]-(1H-indol-5-yl)-amine]
26 | 139 to 146 °C | O=C1CCCN1CCCNCc1ccc(-c2cc3ncnc(Nc4ccc5[nH]ccc5c4)c3s2)cc1 [Example 35, 1-(3-{4-[4-(1H-Indol-5-ylamino)-thieno[3,2-d]pyrimidin-6-yl]-benzylamino}-propyl)-pyrrolidin-2-one]
27 | 148 to 160 °C | CN(C)CCCNCc1ccc(-c2cc3ncnc(Nc4ccc5[nH]ccc5c4)c3s2)cc1 [Example 36, N-{4-[4-(1H-Indol-5-ylamino)-thieno[3,2-d]pyrimidin-6-yl]-benzyl}-N′,N′-dimethyl-propane-1,3-diamine]
28 | 141 to 152 °C | c1nc(Nc2ccc3[nH]ccc3c2)c2sc(-c3ccc(CN4CCOCC4)cc3)cc2n1 [Example 37, (1H-Indol-5yl)-[6-(4-morpholin4-ylmethyl-phenyl)-thieno[3,2-d]pyrimidin-4-yl]-amine]
29 | 98 to 115 °C | CCOC(=O)CNC(=O)CNCc1ccc(-c2cc3ncnc(Nc4ccc5[nH]ccc5c4)c3s2)cc1 [Example 38, (2-{4-[4-(1H-indol-5-ylamino)-thieno[3,2-d]pyrimidin-6-yl]-benzylamino}-acetylamino)-acetic acid ethyl ester]
30 | 176 to 180 °C | c1nc(Nc2ccc3[nH]ccc3c2)c2sc(-c3ccc(CNC4CC4)cc3)cc2n1 [Example 40, [6-(4-Cyclopropylaminomethyl-phenyl)-thieno[3,2-d]pyrimidin-4-yl]-(1H-indol-5-yl)-amine]
31 | 161 to 177 °C | COCC1CCCN1Cc1ccc(-c2cc3ncnc(Nc4ccc5[nH]ccc5c4)c3s2)cc1 (centres unmarked) [Example 42, (1H-Indol-5-yl)-{6-[4-(2-methoxymethyl-pyrrolidin-1-ylmethyl)-phenyl]-thieno[3,2-d]pyrimidin-4-yl}-amine]
32 | 142 to 155 °C | CC(=O)NCCNCc1ccc(-c2cc3ncnc(Nc4ccc5[nH]ccc5c4)c3s2)cc1 [Example 43, N-(2-{4-[4-(1H-Indol-5-ylamino)-thieno[3,2-d]pyrimidin-6-yl]-benzylamino}-ethyl)-acetamide]
33 | 198 to 205 °C | NC(=O)C1CCN(Cc2ccc(-c3cc4ncnc(Nc5ccc6[nH]ccc6c5)c4s3)cc2)CC1 [Example 44, 1-{4-[4-(1H-Indol-5-ylamino)-thieno[3,2-d]pyrimidin-6-yl]-benzyl}-piperidine-4-carboxylic acid amide]
34 | 167 to 174 °C | O=C(c1ccco1)N1CCN(Cc2ccc(-c3cc4ncnc(Nc5ccc6[nH]ccc6c5)c4s3)cc2)CC1 [Example 46, Furan-2-yl-(4-{4-[4-(1H-indol-5-ylamino)-thieno[3,2-d]pyrimidin-6-yl]-benzyl}-piperazin-1-yl)-methanone]
35 | 210 to 211 °C | COc1ccc(Nc2ccc(Nc3ncnc4cc(-c5ccccc5)sc34)cc2)cc1 [Example 62, N-(4-Methoxy-phenyl)-N′-(6-phenyl-thieno[3,2-d]pyrimidin-4-yl)-benzene-1,4-diamine]
36 | 170 to 171 °C | Cc1cccc(Nc2ccc(Nc3ncnc4cc(-c5ccccc5)sc34)cc2)c1 [Example 63, N-(6-Phenyl-thieno[3,2-d]pyrimidin-4-yl)-N′-m-tolyl-benzene-1,4-diamine]
37 | 221 to 222 °C | Cc1ccc(Nc2ccc(Nc3ncnc4cc(-c5ccccc5)sc34)cc2)cc1 [Example 64, N-(6-Phenyl-thieno[3,2-d]pyrimidin-4-yl)-N′-p-tolyl-benzene-1,4-diamine]
38 | 160 to 161 °C | COc1ccc(Nc2ccc(Nc3ncnc4cc(-c5ccccc5)sc34)cc2)cc1OC [Example 65, N-(3,4-Dimethoxy-phenyl)-N′-(6-phenyl-thieno[3,2-d]pyrimidin-4-yl)-benzene-1,4-diamine]
